Reference: ChEMBL document CHEMBL5620381, “Design, synthesis and antitubercular activity of novel N-(amino)piperazinyl benzothiazinones with improved safety” (Eur J Med Chem, 2023)
Converted amounts (≈) assume the structure as drawn.

How the values were obtained:
[1] = system: Mycobacterium tuberculosis; experiment: Antitubercular activity against multidrug resistant Mycobacterium tuberculosis 16883 incubated for 8 days by MABA; assay type: functional; conditions: Mycobacterium tuberculosis, 16883, 192 h; time 8 day
[2] = system: Mycobacterium tuberculosis; experiment: Antitubercular activity against multidrug resistant Mycobacterium tuberculosis 16995 incubated for 8 days by MABA; assay type: functional; conditions: Mycobacterium tuberculosis, 16995, 192 h; time 8 day

Which results are given for O=c1nc(N2CCN(NC3CCCCC3)CC2)sc2c([N+](=O)[O-])cc(C(F)(F)F)cc12?
MIC [1]: < 1 ng/mL; MIC [2]: < 1 ng/mL

Which MIC [1] does the source give for CON=C1CCC(N(C)N2CCN(c3nc(=O)c4cc(C(F)(F)F)cc([N+](=O)[O-])c4s3)CC2)CC1 (stereo not drawn) here?
The MIC was < 1 ng/mL.

What about the MIC [2] of the same compound?
Its MIC is < 1 ng/mL.

With O=c1nc(N2CCN(NC3CCCCCCC3)CC2)sc2c([N+](=O)[O-])cc(C(F)(F)F)cc12 as the compound, how does the MIC [1] read?
Its MIC is < 1 ng/mL.

And the MIC [2]?
Its MIC is < 1 ng/mL.

With CN(C1CCC(C)(C)CC1)N1CCN(c2nc(=O)c3cc(C(F)(F)F)cc([N+](=O)[O-])c3s2)CC1 as the compound, how does the MIC [1] read?
Its MIC is < 1 ng/mL.

What about the MIC [2] of the same compound?
The MIC was < 1 ng/mL.

What does the source list for CN(C1C2CC3CC(C2)CC1C3)N1CCN(c2nc(=O)c3cc(C(F)(F)F)cc([N+](=O)[O-])c3s2)CC1 (stereo not drawn)?
MIC [1]: < 1 ng/mL; MIC [2]: 1.5 ng/mL (≈ 2.86 nM)

For CC1CC(N(C)N2CCN(c3nc(=O)c4cc(C(F)(F)F)cc([N+](=O)[O-])c4s3)CC2)CC(C)(C)C1 (stereo not drawn), which MIC [1] is on record?
The MIC was < 1 ng/mL.

What about the MIC [2] of the same compound?
The MIC was < 1 ng/mL.

How did the MIC [1] turn out when CON=C1CCC(N(C)N2CCN(c3nc(=O)c4cc(C(F)(F)F)cc([N+](=O)[O-])c4s3)CC2(C)C)CC1 (stereo not drawn) was run?
Its MIC is 125 ng/mL (≈ 231 nM).

What about the MIC [2] of the same compound?
Its MIC is 15.7 ng/mL (≈ 28.9 nM).

Which MIC [1] does the source give for CN(C1CCC2(CCCCC2)CC1)N1CCN(c2nc(=O)c3cc(C(F)(F)F)cc([N+](=O)[O-])c3s2)CC1 here?
Its MIC is < 1 ng/mL.

What about the MIC [2] of the same compound?
Its MIC is < 1 ng/mL.

How did the MIC [1] turn out when CC1CCC(C)C(N(C)N2CCN(c3nc(=O)c4cc(C(F)(F)F)cc([N+](=O)[O-])c4s3)CC2)C1 (stereo not drawn) was run?
The MIC was < 1 ng/mL.

And the MIC [2]?
Its MIC is < 1 ng/mL.

CN(C1CCCCC1)N1CCN(c2nc(=O)c3cc(C(F)(F)F)cc([N+](=O)[O-])c3s2)CC1 was tested. Which MIC [1] did it give?
Its MIC is < 1 ng/mL.

What about the MIC [2] of the same compound?
Its MIC is < 1 ng/mL.

What does the source list for CN(C1CCC(C)(C)CC1)N1CCN(c2nc(=O)c3cc(C(F)(F)F)cc([N+](=O)[O-])c3s2)CC1(C)C?
MIC [1]: < 1 ng/mL; MIC [2]: < 1 ng/mL

Which results are given for CN(C1CCCCC1)N1CCN(c2nc(=O)c3cc(C(F)(F)F)cc([N+](=O)[O-])c3s2)CC1(C)C?
MIC [1]: < 1 ng/mL; MIC [2]: < 1 ng/mL

Which MIC [1] does the source give for CC1CCC(N(C)N2CCN(c3nc(=O)c4cc(C(F)(F)F)cc([N+](=O)[O-])c4s3)CC2)CC1 (stereo not drawn) here?
The MIC was < 1 ng/mL.

And the MIC [2]?
Its MIC is < 1 ng/mL.

Which MIC [1] does the source give for CN(C1CCCCCCC1)N1CCN(c2nc(=O)c3cc(C(F)(F)F)cc([N+](=O)[O-])c3s2)CC1 here?
Its MIC is < 1 ng/mL.

And the MIC [2]?
The MIC was < 1 ng/mL.

For CC1(C)CCC(NN2CCN(c3nc(=O)c4cc(C(F)(F)F)cc([N+](=O)[O-])c4s3)CC2)CC1, which MIC [1] is on record?
The MIC was < 1 ng/mL.

What about the MIC [2] of the same compound?
Its MIC is < 1 ng/mL.

How did the MIC [1] turn out when CN(C1CCC(=NOC(C)(C)C)CC1)N1CCN(c2nc(=O)c3cc(C(F)(F)F)cc([N+](=O)[O-])c3s2)CC1 (stereo not drawn) was run?
Its MIC is 5.25 ng/mL (≈ 9.43 nM).

And the MIC [2]?
The MIC was 12.8 ng/mL (≈ 23 nM).

O=c1nc(N2CCN(NC3CCC(F)(F)CC3)CC2)sc2c([N+](=O)[O-])cc(C(F)(F)F)cc12 was tested. Which MIC [1] did it give?
Its MIC is 3.15 ng/mL (≈ 6.38 nM).

What about the MIC [2] of the same compound?
The MIC was 4 ng/mL (≈ 8.11 nM).

CC1CCCCC1NN1CCN(c2nc(=O)c3cc(C(F)(F)F)cc([N+](=O)[O-])c3s2)CC1 (stereo not drawn) was tested. Which MIC [1] did it give?
Its MIC is < 1 ng/mL.

And the MIC [2]?
Its MIC is < 1 ng/mL.

What does the source list for CON=C1CCC(N(C)N2CCN(c3nc(=O)c4cc(C(F)(F)F)cc([N+](=O)[O-])c4s3)CC2C)CC1 (stereo not drawn)?
MIC [1]: 6.65 ng/mL (≈ 12.6 nM); MIC [2]: 14.9 ng/mL (≈ 28.2 nM)

Which results are given for CN(C1CCC(F)(F)CC1)N1CCN(c2nc(=O)c3cc(C(F)(F)F)cc([N+](=O)[O-])c3s2)CC1?
MIC [1]: < 1 ng/mL; MIC [2]: < 1 ng/mL

What does the source list for CCON=C1CCC(N(C)N2CCN(c3nc(=O)c4cc(C(F)(F)F)cc([N+](=O)[O-])c4s3)CC2)CC1 (stereo not drawn)?
MIC [1]: 11.4 ng/mL (≈ 21.7 nM); MIC [2]: 11.2 ng/mL (≈ 21.2 nM)

With CC1CN(c2nc(=O)c3cc(C(F)(F)F)cc([N+](=O)[O-])c3s2)CCN1N(C)C1CCC(C)(C)CC1 (stereo not drawn) as the compound, how does the MIC [1] read?
The MIC was < 1 ng/mL.

What about the MIC [2] of the same compound?
Its MIC is < 1 ng/mL.

Which results are given for CC1CCC(NN2CCN(c3nc(=O)c4cc(C(F)(F)F)cc([N+](=O)[O-])c4s3)CC2)CC1 (stereo not drawn)?
MIC [1]: < 1 ng/mL; MIC [2]: < 1 ng/mL

CC1CN(c2nc(=O)c3cc(C(F)(F)F)cc([N+](=O)[O-])c3s2)CCN1N(C)C1CCCCC1 (stereo not drawn) was tested. Which MIC [1] did it give?
The MIC was < 1 ng/mL.

And the MIC [2]?
Its MIC is < 1 ng/mL.

Which MIC [1] does the source give for CC1CCCCC1N(C)N1CCN(c2nc(=O)c3cc(C(F)(F)F)cc([N+](=O)[O-])c3s2)CC1 (stereo not drawn) here?
The MIC was < 1 ng/mL.

And the MIC [2]?
Its MIC is < 1 ng/mL.

With CN(CC1CCC(F)(F)CC1)N1CCN(c2nc(=O)c3cc(C(F)(F)F)cc([N+](=O)[O-])c3s2)CC1 as the compound, how does the MIC [1] read?
The MIC was < 1 ng/mL.

What about the MIC [2] of the same compound?
The MIC was < 1 ng/mL.

With NNC(=O)c1ccncc1 [ISONIAZID] as the compound, how does the MIC [1] read?
The MIC was > 20000 ng/mL.

And the MIC [2]?
The MIC was > 20000 ng/mL.

What does the source list for O=c1nc(N2CCN(CC3CCCCC3)CC2)sc2c([N+](=O)[O-])cc(C(F)(F)F)cc12 [MACOZINONE]?
MIC [1]: < 1 ng/mL; MIC [2]: < 1 ng/mL

CO[C@H]1/C=C/O[C@@]2(C)Oc3c(C)c(O)c4c(O)c(c(/C=N/N5CCN(C)CC5)c(O)c4c3C2=O)NC(=O)/C(C)=C\C=C\[C@H](C)[C@H](O)[C@@H](C)[C@@H](O)[C@@H](C)[C@H](OC(C)=O)[C@@H]1C [RIFAMPIN] was tested. Which MIC [1] did it give?
The MIC was > 20000 ng/mL.

What about the MIC [2] of the same compound?
The MIC was > 20000 ng/mL.
